From ChEMBL document CHEMBL1201862, “PubChem BioAssay data set” (2004)
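Exposure lasted 48 hours, with cells grown in 96-well plates and compounds tested at five concentrations. GI50 marks 50% less growth.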 Activity calls are given as the source filed them. Cut-off read from the data, not from the text of the source: active = GI50 up to about 1.1 µM and inactive = higher.

What was measured:
Test in all cases: growth of human tumour cells (NCI), 48 h
[1] = test system: 786-0
[2] = test system: A498
[3] = test system: A549
[4] = test system: EKVX
[5] = test system: HL-60
[6] = test system: HOP-92
[7] = test system: M14
[8] = test system: NCI-H226
[9] = test system: SF-268
[10] = test system: SF-295
[11] = test system: SF-539
[12] = test system: SK-MEL-28
[13] = test system: SK-OV-3
[14] = test system: SW-620
[15] = test system: UACC-257
[16] = test system: CCRF-CEM
[17] = test system: HCT-15
[18] = test system: OVCAR-8

Structure (SMILES) | GI50 [1] | GI50 [2] | GI50 [3] | GI50 [4] | GI50 [5] | GI50 [6] | GI50 [7] | GI50 [8] | GI50 [9] | GI50 [10] | GI50 [11] | GI50 [12] | GI50 [13] | GI50 [14] | GI50 [15] | GI50 [16] | GI50 [17] [µM] | GI50 [18]
O=C(N/N=C/c1cc(-c2ccccc2Cl)c(-c2ccccc2Cl)o1)c1ccncc1 | > 100 µM (inactive) | > 100 µM (inactive) | > 100 µM (inactive) | > 100 µM (inactive) | 89.7 µM (inactive) | > 100 µM (inactive) | > 100 µM (inactive) | > 100 µM (inactive) | > 100 µM (inactive) | > 100 µM (inactive) | > 100 µM (inactive) | > 100 µM (inactive) | > 100 µM (inactive) | > 100 µM (inactive) | > 100 µM (inactive) | – | – | –
CC(C)(C)c1cc2ccc(C(N)=O)cc2c(=O)[nH]1 | > 100 µM (inactive) | > 100 µM (inactive) | > 100 µM (inactive) | 82.4 µM (inactive) | 79.8 µM (inactive) | 95.1 µM (inactive) | > 100 µM (inactive) | 56 µM (inactive) | > 100 µM (inactive) | > 100 µM (inactive) | 46.8 µM (inactive) | > 100 µM (inactive) | > 100 µM (inactive) | > 100 µM (inactive) | > 100 µM (inactive) | > 100 µM (inactive) | > 100 | > 100 µM (inactive)
COc1c(C(C)C)cc2c3c1OC(=O)[C@@]31CCCC(C)(C)C1CC2 (stereo partly drawn) | 46.7 µM (inactive) | – | 13.6 µM (inactive) | 14.6 µM (inactive) | 14.2 µM (inactive) | – | 33.5 µM (inactive) | 4.92 µM (inactive) | 28.7 µM (inactive) | 24.5 µM (inactive) | 14 µM (inactive) | 27.4 µM (inactive) | 23.8 µM (inactive) | 26.4 µM (inactive) | 20.3 µM (inactive) | 18.5 µM (inactive) | 55.7 | 17.7 µM (inactive)
CC(=O)Nc1ccc(C2CC(c3ccc([N+](=O)[O-])cc3)=Nc3ccccc3[S+]2[O-])cc1 (stereo not drawn) | 9.64 µM (inactive) | – | 38.4 µM (inactive) | 36.5 µM (inactive) | 17.6 µM (inactive) | – | 27.9 µM (inactive) | 20.4 µM (inactive) | 36.6 µM (inactive) | 28.8 µM (inactive) | 24.6 µM (inactive) | 19.6 µM (inactive) | 27.4 µM (inactive) | 20 µM (inactive) | 28.6 µM (inactive) | 11.4 µM (inactive) | 20.6 | 30.5 µM (inactive)
CCC1(C)NN=c2s/c(=C/c3ccc(OC)cc3)c(=O)n2N1 (stereo not drawn) | > 100 µM (inactive) | – | > 100 µM (inactive) | > 100 µM (inactive) | – | 17.6 µM (inactive) | > 100 µM (inactive) | > 100 µM (inactive) | 65 µM (inactive) | > 100 µM (inactive) | 90.6 µM (inactive) | > 100 µM (inactive) | > 100 µM (inactive) | > 100 µM (inactive) | – | > 100 µM (inactive) | – | > 100 µM (inactive)
COc1ccc(S(=O)(=O)NC(C)C(=O)O)cc1 (stereo not drawn) | > 100 µM (inactive) | > 100 µM (inactive) | > 100 µM (inactive) | > 100 µM (inactive) | > 100 µM (inactive) | > 100 µM (inactive) | > 100 µM (inactive) | – | > 100 µM (inactive) | > 100 µM (inactive) | > 100 µM (inactive) | > 100 µM (inactive) | > 100 µM (inactive) | > 100 µM (inactive) | > 100 µM (inactive) | > 100 µM (inactive) | > 100 | > 100 µM (inactive)
C[C@]12CCC3[C@@H](CCC45OC4C(=O)CC[C@]35C)C1Cc1cnn(-c3ccc(F)cc3)c1N2 (stereo partly drawn) | 18.6 µM (inactive) | – | 65.5 µM (inactive) | 49.9 µM (inactive) | 17.6 µM (inactive) | – | 48.6 µM (inactive) | 33.4 µM (inactive) | 23.6 µM (inactive) | 39 µM (inactive) | – | 26.6 µM (inactive) | 58.1 µM (inactive) | 31.8 µM (inactive) | 35.9 µM (inactive) | 21.3 µM (inactive) | 17.5 | 29.8 µM (inactive)
CCCN(CCC)CCc1cc(C(C)=O)n(S(=O)(=O)c2ccc(C)cc2)c1 | > 100 µM (inactive) | > 100 µM (inactive) | > 100 µM (inactive) | > 100 µM (inactive) | – | > 100 µM (inactive) | 20.3 µM (inactive) | > 100 µM (inactive) | > 100 µM (inactive) | > 100 µM (inactive) | > 100 µM (inactive) | > 100 µM (inactive) | > 100 µM (inactive) | > 100 µM (inactive) | 54.6 µM (inactive) | > 100 µM (inactive) | > 100 | > 100 µM (inactive)
O=c1c2cccc3cccc(c4n1CCN=4)c32 | > 100 µM (inactive) | 40.3 µM (inactive) | > 100 µM (inactive) | > 100 µM (inactive) | 56.8 µM (inactive) | > 100 µM (inactive) | 73.1 µM (inactive) | 56.8 µM (inactive) | > 100 µM (inactive) | > 100 µM (inactive) | > 100 µM (inactive) | > 100 µM (inactive) | 41 µM (inactive) | > 100 µM (inactive) | > 100 µM (inactive) | 80.2 µM (inactive) | 85.7 | > 100 µM (inactive)
COC(=O)/C(Cl)=C1/CC1COCc1ccccc1 (stereo not drawn) | 19.7 µM (inactive) | 22.6 µM (inactive) | 54.7 µM (inactive) | > 10 µM (inactive) | 13.6 µM (inactive) | 22.9 µM (inactive) | 17 µM (inactive) | 32.3 µM (inactive) | 43.8 µM (inactive) | 53.5 µM (inactive) | 23.8 µM (inactive) | 21.8 µM (inactive) | > 100 µM (inactive) | 21.1 µM (inactive) | 34.7 µM (inactive) | 14 µM (inactive) | 17.1 | 30.5 µM (inactive)
CCOc1ccc2c(c1)[n+]([O-])c(-c1ccccc1)c(N)[n+]2[O-] | > 100 µM (inactive) | 82.6 µM (inactive) | > 100 µM (inactive) | 89.1 µM (inactive) | 37 µM (inactive) | – | 81.5 µM (inactive) | > 100 µM (inactive) | 36.6 µM (inactive) | > 100 µM (inactive) | 51.3 µM (inactive) | 33.1 µM (inactive) | > 100 µM (inactive) | > 100 µM (inactive) | 41.5 µM (inactive) | 50.7 µM (inactive) | 55.2 | 78.5 µM (inactive)
CCCCCCCCCCCCN(O)C(=O)c1ccccc1 | 16.9 µM (inactive) | 18.8 µM (inactive) | 24.4 µM (inactive) | 25.9 µM (inactive) | 19.1 µM (inactive) | 17.7 µM (inactive) | 21.2 µM (inactive) | – | 15.1 µM (inactive) | 29.4 µM (inactive) | 20.6 µM (inactive) | 36.8 µM (inactive) | 43.1 µM (inactive) | 34 µM (inactive) | 18.8 µM (inactive) | 3.82 µM (inactive) | 9.64 | 18.9 µM (inactive)
Clc1ccc(C2=NN(c3ccccc3)C3c4cc(Br)ccc4OCC23)cc1 (stereo not drawn) | > 100 µM (inactive) | > 100 µM (inactive) | > 100 µM (inactive) | > 100 µM (inactive) | 40.8 µM (inactive) | > 100 µM (inactive) | – | – | 53.6 µM (inactive) | 86.3 µM (inactive) | > 100 µM (inactive) | > 100 µM (inactive) | > 100 µM (inactive) | > 100 µM (inactive) | 99.1 µM (inactive) | 61.9 µM (inactive) | – | > 100 µM (inactive)
CCC12CCCC(=O)N1C(CO)C(c1ccccc1)O2 (stereo not drawn) | > 100 µM (inactive) | > 100 µM (inactive) | > 100 µM (inactive) | > 100 µM (inactive) | – | > 100 µM (inactive) | – | – | > 100 µM (inactive) | > 100 µM (inactive) | > 100 µM (inactive) | > 100 µM (inactive) | – | > 100 µM (inactive) | > 100 µM (inactive) | > 100 µM (inactive) | > 100 | > 100 µM (inactive)
O=C1C(Cl)C(c2ccc([N+](=O)[O-])cc2)N1n1cnc2ccccc2c1=O (stereo not drawn) | 20.7 µM (inactive) | – | 30.7 µM (inactive) | 12.7 µM (inactive) | – | – | 32.3 µM (inactive) | 51.6 µM (inactive) | 28.6 µM (inactive) | 17.6 µM (inactive) | – | 24.1 µM (inactive) | 9.75 µM (inactive) | 97.7 µM (inactive) | > 100 µM (inactive) | 17.6 µM (inactive) | > 100 | 19.1 µM (inactive)
CCOP(=O)(OCC)C1CC(C)OC1=O (stereo not drawn) | > 100 µM (inactive) | > 100 µM (inactive) | > 100 µM (inactive) | > 100 µM (inactive) | > 100 µM (inactive) | – | > 100 µM (inactive) | – | > 100 µM (inactive) | > 100 µM (inactive) | > 100 µM (inactive) | > 100 µM (inactive) | > 100 µM (inactive) | > 100 µM (inactive) | > 100 µM (inactive) | > 100 µM (inactive) | > 100 | > 100 µM (inactive)
COc1ccc(CC2=NCCc3cc(OC)c(OC)cc32)cc1Br | 5.78 µM (inactive) | 13.1 µM (inactive) | 21.6 µM (inactive) | 40.6 µM (inactive) | 3.1 µM (inactive) | 0.644 µM (active) | – | 4.38 µM (inactive) | 41.7 µM (inactive) | 3.48 µM (inactive) | 24.7 µM (inactive) | 19.8 µM (inactive) | 16.9 µM (inactive) | 7.52 µM (inactive) | 21.3 µM (inactive) | 12.4 µM (inactive) | – | 20.7 µM (inactive)
